This note sets out measurements from ChEMBL document CHEMBL1137486, “N4-phenyl modifications of N2-(2-hydroxyl)ethyl-6-(pyrrolidin-1-yl)-1,3,5-triazine-2,4-diamines enhance glucocerebrosidase inhibition by small molecules with potential as chemical chaperones for Gaucher disease” (Bioorg Med Chem Lett, 2007).

Each structure is given as a SMILES string. Active and inactive are the calls of the source. The calls are words filed in the database; no cut-off is given here.

Alpha-galactosidase (Coffea arabica), sequence (Q5DUH8 as listed by the source): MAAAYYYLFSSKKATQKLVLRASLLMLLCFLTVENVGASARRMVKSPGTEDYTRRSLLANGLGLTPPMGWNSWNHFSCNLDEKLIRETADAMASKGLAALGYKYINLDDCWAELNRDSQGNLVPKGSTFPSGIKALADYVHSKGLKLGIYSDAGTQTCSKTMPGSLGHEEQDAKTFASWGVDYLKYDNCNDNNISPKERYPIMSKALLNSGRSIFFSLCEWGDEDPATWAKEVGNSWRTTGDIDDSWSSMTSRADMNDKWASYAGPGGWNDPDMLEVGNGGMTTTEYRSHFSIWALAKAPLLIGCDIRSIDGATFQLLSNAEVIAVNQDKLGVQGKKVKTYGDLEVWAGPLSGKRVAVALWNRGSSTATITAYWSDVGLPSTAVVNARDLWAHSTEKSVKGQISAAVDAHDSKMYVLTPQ

The test system of the first assay is Oryza sativa. Kind of assay: Inhibition of rice alpha glucosidase upto 77 uM.
Regarding `CC(C)(C)Oc1ccccc1Nc1nc(NCCO)nc(N2CCCC2)n1`, the result was inactive.

A further assay has as its target Alpha-galactosidase (Coffea arabica) (UniProt Q5DUH8). As to the kind of experiment: Inhibition of coffee bean alpha galactosidase upto 77 uM.
For `CC(C)(C)Oc1ccccc1Nc1nc(NCCO)nc(N2CCCC2)n1`, the outcome was inactive.

A further assay has as its target T1, Lysosomal acid glucosylceramidase (Homo sapiens) (UniProt P04062).
T1 sequence (whole entry): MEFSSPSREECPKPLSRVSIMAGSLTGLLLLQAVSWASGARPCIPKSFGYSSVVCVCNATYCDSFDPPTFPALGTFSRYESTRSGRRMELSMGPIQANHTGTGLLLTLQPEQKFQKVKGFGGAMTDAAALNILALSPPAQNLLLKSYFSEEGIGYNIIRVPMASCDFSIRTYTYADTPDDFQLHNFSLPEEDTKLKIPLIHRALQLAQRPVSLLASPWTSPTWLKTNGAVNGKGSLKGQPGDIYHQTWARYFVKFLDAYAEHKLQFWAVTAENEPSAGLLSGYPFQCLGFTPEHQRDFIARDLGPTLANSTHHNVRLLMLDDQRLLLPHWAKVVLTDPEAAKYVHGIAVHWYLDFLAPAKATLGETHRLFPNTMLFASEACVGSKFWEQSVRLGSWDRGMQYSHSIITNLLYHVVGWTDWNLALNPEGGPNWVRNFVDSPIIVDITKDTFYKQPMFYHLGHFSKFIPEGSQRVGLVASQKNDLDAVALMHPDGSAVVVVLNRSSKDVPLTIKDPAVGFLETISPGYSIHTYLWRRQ
Kind of assay: (§1) Inhibition of glucocerebrosidase.
For the compound `NC(=O)c1ccccc1Nc1nc(NCCO)nc(N2CCCC2)n1`, the result was inactive.
On the same count and under the same terms, in the case of `COc1ccc(Cl)cc1Nc1nc(N(CCO)CCO)nc(N2CCCC2)n1` it was “inactive”.
Still for that read-out and setting: next, `COc1ccc(Cl)cc1Nc1nc(NCc2ccco2)nc(N2CCCC2)n1`: “inactive”.
On the same count and under the same terms, next, `COc1ccc(Cl)cc1Nc1nc(NCCO)nc(N2CCCCCC2)n1`: “inactive”; `COc1ccc(Cl)cc1Nc1nc(N)nc(N2CCCC2)n1`: “inactive”.
As for `COc1ccccc1Nc1nc(NCCCCO)nc(N2CCCC2)n1`, the result was inactive.
On to `COc1ccccc1Nc1nc(NCCNC(C)=O)nc(N2CCCC2)n1`, for which the result was inactive.
Still for that read-out and setting: next, `COC(=O)CNc1nc(Nc2ccccc2OC)nc(N2CCCC2)n1`: “inactive”.
Same read-out and setting: next, `O=[N+]([O-])c1ccccc1Nc1nc(NCCO)nc(N2CCCC2)n1`: “inactive”; `CCN(CC)c1nc(NCCO)nc(Nc2cc(Cl)ccc2OC)n1`: “inactive”.
Still for that read-out and setting: in the case of `COCCNc1nc(Nc2cc(Cl)ccc2OC)nc(N2CCCC2)n1` it was “inactive”; in that of `CC(=O)Nc1ccccc1Nc1nc(NCCO)nc(N2CCCC2)n1`, “inactive”.
With `COc1ccccc1Nc1nc(NCC(N)=O)nc(N2CCCC2)n1`, the outcome was inactive.
On the same count and under the same terms, next, `COc1ccc(Cl)cc1Nc1nc(NCc2ccccc2)nc(N2CCCC2)n1`: “inactive”.

For the next assay, the target named is T2, Lysosomal acid glucosylceramidase (Homo sapiens, UniProt P04062).
T2 sequence (P04062 whole entry): T1 sequence (whole entry)
Described as §1.
In general, IC50 refers to the point on the concentration scale where inhibition reaches its midpoint. A low value points to inhibition by little substance. For the compound `OCCNc1nc(Nc2ccccc2O)nc(N2CCCC2)n1`, the concentration for half-maximal inhibition (IC50) stood at 2 µM.
The same measure, in the same setting: in the case of `Cc1ccccc1Nc1nc(NCCO)nc(N2CCCC2)n1` it was 3.94 µM; in that of `OCCNc1nc(Nc2ccccc2OC(F)(F)F)nc(N2CCCC2)n1`, 3.34 µM; in that of `CCOc1ccc(Cl)cc1Nc1nc(NCCO)nc(N2CCCC2)n1`, 0.96 µM.
Same read-out and setting: next, `COc1cccc(Nc2nc(NCCO)nc(N3CCCC3)n2)c1`: 8.25 µM.
`CC(C)(C)Oc1ccc(Cl)cc1Nc1nc(NCCO)nc(N2CCCC2)n1` showed an IC50 of 1.04 µM.
`OCCNc1nc(Nc2ccccc2)nc(N2CCCC2)n1`: the IC50 was 16.5 µM.
Same read-out and setting: next, `CSc1ccccc1Nc1nc(NCCO)nc(N2CCCC2)n1`: 2.39 µM; `COc1ccc(Cl)cc1Nc1nc(NCCO)nc(N2CCOCC2)n1`: 12.1 µM.
Still for that read-out and setting: in the case of `COc1ccc(Cl)cc1Nc1nc(NCCO)nc(N2CCCCC2)n1` it was 31.1 µM; in that of `COc1ccc(OC)c(Nc2nc(NCCO)nc(N3CCCC3)n2)c1`, 1.53 µM; in that of `CC(C)(C)Oc1ccccc1Nc1nc(NCCO)nc(N2CCCC2)n1`, 0.33 µM.
`OCCNc1nc(Nc2ccccc2Oc2ccccc2)nc(N2CCCC2)n1` displayed an IC50 of 21.7 µM.
On the same count and under the same terms, in the case of `COc1ccccc1Nc1nc(NCCO)nc(NCc2ccccc2)n1` it was 18.8 µM; in that of `Cc1ccc(Nc2nc(NCCO)nc(N3CCCC3)n2)cc1`, 10 µM.
The same measure, in the same setting: in the case of `COc1ccccc1Nc1nc(NCC(C)O)nc(N2CCCC2)n1` (configuration not stated) it was 20.7 µM.
Still for that read-out and setting: in the case of `OCCNc1nc(Nc2ccccc2Cl)nc(N2CCCC2)n1` it was 29 µM; in that of `OCCNc1nc(Nc2cc(-c3ccccc3)ccc2O)nc(N2CCCC2)n1`, 0.37 µM.
Take `COc1ccc(-c2ccccc2)cc1Nc1nc(NCCO)nc(N2CCCC2)n1`: the IC50 came out at 2.22 µM.
Consider `COc1ccccc1Nc1nc(NCCO)nc(N2CCC(F)(F)C2)n1`, for which the concentration for half-maximal inhibition (IC50) was 7.75 µM.
Same read-out and setting: next, `COc1ccccc1Nc1nc(NCCO)nc(N2CCCC2)n1`: 1.08 µM.
The same measure, in the same setting: in the case of `OCCNc1nc(Nc2cccc(Cl)c2)nc(N2CCCC2)n1` it was 6.69 µM.
For `COc1ccccc1Nc1nc(NCC(O)Cc2ccccc2)nc(N2CCCC2)n1` (configuration not stated), 6.8 µM corresponded to half-maximal inhibition (IC50).
Compound `OCCNc1nc(Nc2cc(Cl)ccc2O)nc(N2CCCC2)n1` came in with an IC50 of 0.73 µM.
In turn, `COc1ccccc1Nc1nc(NCCO)nc(N2CCC2)n1` yielded an IC50 of 2.31 µM.
On the same count and under the same terms, in the case of `OCCNc1nc(Nc2ccccc2OCc2ccccc2)nc(N2CCCC2)n1` it was 31.4 µM; in that of `COc1ccc(C(F)(F)F)cc1Nc1nc(NCCO)nc(N2CCCC2)n1`, 2.65 µM; in that of `OCCNc1nc(Nc2ccc(Cl)cc2)nc(N2CCCC2)n1`, 6.34 µM.
On the same count and under the same terms, in the case of `Cc1cccc(Nc2nc(NCCO)nc(N3CCCC3)n2)c1` it was 6.19 µM; in that of `CCCCNc1nc(NCCO)nc(Nc2ccccc2OC)n1`, 6.1 µM.
Same read-out and setting: next, `CCOc1ccccc1Nc1nc(NCCO)nc(N2CCCC2)n1`: 0.77 µM.
Regarding `CC(C)Oc1ccc(Cl)cc1Nc1nc(NCCO)nc(N2CCCC2)n1`, half-maximal inhibition (IC50) required 3.44 µM.
`COc1ccc(Nc2nc(NCCO)nc(N3CCCC3)n2)c(OC)c1` had an IC50 of 4.9 µM.
The same measure, in the same setting: next, `CCCCNc1nc(Nc2cc(Cl)ccc2OC)nc(N2CCCC2)n1`: 7.77 µM; `COc1ccc(Nc2nc(NCCO)nc(N3CCCC3)n2)cc1`: 8.8 µM.

Another assay deals with T3, Beta-hexosaminidase subunit alpha (Bos taurus) (UniProt Q0V8R6).
T3 sequence (whole entry): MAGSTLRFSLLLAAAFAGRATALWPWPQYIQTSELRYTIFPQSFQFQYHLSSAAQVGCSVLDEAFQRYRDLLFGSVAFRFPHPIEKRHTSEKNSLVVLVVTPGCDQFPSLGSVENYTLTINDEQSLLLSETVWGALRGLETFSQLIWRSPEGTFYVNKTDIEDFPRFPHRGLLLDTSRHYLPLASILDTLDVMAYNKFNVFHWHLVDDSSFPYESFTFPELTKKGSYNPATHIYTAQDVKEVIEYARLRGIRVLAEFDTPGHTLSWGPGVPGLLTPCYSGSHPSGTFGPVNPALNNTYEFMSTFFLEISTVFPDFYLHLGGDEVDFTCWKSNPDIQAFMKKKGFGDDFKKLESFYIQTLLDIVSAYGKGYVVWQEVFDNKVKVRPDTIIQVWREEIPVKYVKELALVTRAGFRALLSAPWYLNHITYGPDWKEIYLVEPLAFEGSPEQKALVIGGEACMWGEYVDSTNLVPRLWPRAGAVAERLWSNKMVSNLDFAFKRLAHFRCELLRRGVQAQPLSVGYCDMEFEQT
Kind of assay: Inhibition of bovine beta hexosaminidase upto 77 uM.
`CC(C)(C)Oc1ccccc1Nc1nc(NCCO)nc(N2CCCC2)n1`: the outcome was inactive.
